Values quoted from earlier work, collected in US20140148378A1, “ANTIBACTERIAL PEPTIDES” (THE REGENTS OF THE UNIVERSITY OF CALIFORNIA, priority 2012, published 2014).

Experiments:
[1] = from bioactive peptide databases / literature
[2] = lactoferricin versus human lactoferrin

| Substance | Known activity of overlapping literature bioactive peptide [1] | bactericidal effects relative to the parent protein [2] |
| --- | --- | --- |
| QELLLNPTHQYPVTQPLAPVHNPISV (listed as Homo sapiens) [SEQ ID NO: 506] | Antibacterial | – |
| QPTIPFFDPQIPK (listed as Homo sapiens) [SEQ ID NO: 505] | Immuno- | – |
| YQRRPAIAINNPYVPRTYYANPAVVRPHAQIPQRQYLPNSHPPTVVRRPNLHPSF (listed as Homo sapiens) [SEQ ID NO: 504] | Antibacterial | – |
| lactoferricin | – | 10-100 times |
